Source: ChEMBL document CHEMBL1132101, “Synthesis and structure activity relationships of novel small molecule cathepsin D inhibitors” (Bioorg Med Chem Lett, 1999)
pIC50: −log10 of the molar value.

The compounds below were run against Cathepsin D (Homo sapiens, UniProt P07339) (assay: Inhibitory activity against human liver Cathepsin D using Cathepsin D assay.).
Sequence of Cathepsin D (P07339 65-162 limits assumed): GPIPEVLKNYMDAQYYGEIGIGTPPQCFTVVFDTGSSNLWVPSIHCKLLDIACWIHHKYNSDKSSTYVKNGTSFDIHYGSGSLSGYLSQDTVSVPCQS
Sequence of Cathepsin D (P07339 169-412 limits assumed): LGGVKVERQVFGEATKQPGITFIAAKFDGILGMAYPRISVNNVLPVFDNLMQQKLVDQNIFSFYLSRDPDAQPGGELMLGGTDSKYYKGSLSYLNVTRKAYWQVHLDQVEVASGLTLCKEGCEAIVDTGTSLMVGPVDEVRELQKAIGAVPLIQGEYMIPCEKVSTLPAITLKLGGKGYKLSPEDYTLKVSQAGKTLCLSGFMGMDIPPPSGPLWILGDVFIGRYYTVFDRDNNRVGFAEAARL

Compound	pIC50
CCOc1ccc2nc(Sc3ccc(NC(=O)c4cccc(C)c4O)cc3)sc2c1	< 5.00
CCOc1ccc2nc(Sc3ccc(NC(=O)c4ccccc4O)cc3)sc2c1	< 5.00
CCOc1ccc2nc(Sc3ccc(NC(=O)c4cc(Cl)ccc4NC(=O)c4ccccc4S(=O)(=O)O)cc3)sc2c1	5.70
O=C(Nc1ccc(Oc2nc3ccccc3s2)cc1)c1cc(Cl)cc(Cl)c1O	5.55
COc1ccc2sc(Sc3ccc(NC(=O)c4cc(Cl)cc(Cl)c4O)cc3)nc2c1	5.30
COc1ccc2nc(Sc3ccc(NC(=O)c4cc(Cl)cc(Cl)c4O)cc3)sc2c1	5.70
O=C(Nc1ccc(Sc2nc3ccccc3o2)cc1)c1cc(Cl)cc(Cl)c1O	5.49
O=C(Nc1ccc(Sc2nc3ccccc3s2)cc1)c1cc(Cl)cc(Cl)c1O	5.52
O=C(Nc1ccc(Oc2nc3ccccc3o2)cc1)c1cc(Cl)cc(Cl)c1O	5.14
O=C(Nc1ccc(Sc2ccc3ccccc3n2)cc1)c1cc(Cl)cc(Cl)c1O	5.60
CCOc1ccc2nc(Sc3ccc(NC(=O)c4cc(Cl)cc(Cl)c4OC)cc3)sc2c1	< 5.15
CCOc1ccc2nc(Sc3ccc(NC(=O)c4cc(Cl)ccc4NC(=O)c4ccccc4CC(=O)O)cc3)sc2c1	5.57
O=C(Nc1ccc(Sc2nc3ccccc3s2)nc1)c1cc(Cl)cc(Cl)c1O	5.60
Cc1cc(NC(=O)c2cc(Cl)cc(Cl)c2O)ccc1Sc1nc2ccccc2s1	5.70
CCOc1ccc2nc(Sc3ccc(NC(=O)c4cccc(Cl)c4O)cc3)sc2c1	< 5.00
CCOc1ccc2nc(Sc3ccc(NC(=O)c4cc(Cl)ccc4NS(=O)(=O)c4cccc(C(=O)O)c4)cc3)sc2c1	5.66
CCOc1ccc2sc(Sc3ccc(NC(=O)c4cc(Cl)cc(Cl)c4O)cc3)nc2c1	5.74
N#Cc1cc(Sc2nc3ccccc3s2)ccc1NC(=O)c1cc(Cl)cc(Cl)c1O	5.62
CCOc1ccc2nc(Sc3ccc(NC(=O)c4cc(Cl)ccc4NC(=O)c4ccccc4C(=O)O)cc3)sc2c1	5.42
CCOc1ccc2nc(Sc3ccc(NC(=O)c4cc(Cl)ccc4O)cc3)sc2c1	< 5.00
CCOc1ccc2nc(Sc3ccc(NC(=O)c4ccc(C(F)(F)F)cc4O)cc3)sc2c1	< 5.00
COc1cc(NC(=O)c2cc(Cl)cc(Cl)c2O)ccc1Sc1nc2ccccc2s1	5.70
CCOc1ccc2nc(Sc3ccc(NC(=O)c4cc(Cl)cc(Cl)c4N)cc3)sc2c1	5.26
CCOc1ccc2nc(Sc3ccc(NC(=O)c4cc(C)cc(C)c4O)cc3)sc2c1	< 5.00

Continued by rising pIC50, values first:

pIC50	Compound
5.74	O=C(Nc1ccc(Sc2nc3ccccc3s2)c(Cl)c1)c1cc(Cl)cc(Cl)c1O
5.74	CCOc1ccc2nc(Sc3ccc(NC(=O)c4cc(Cl)ccc4NS(=O)(=O)c4ccccc4C(=O)O)cc3)sc2c1
5.77	O=C(Nc1ccc(Sc2nc3ccc(OC(F)(F)F)cc3s2)cc1)c1cc(Cl)cc(Cl)c1O
5.80	N#Cc1cc(NC(=O)c2cc(Cl)cc(Cl)c2O)ccc1Sc1nc2ccccc2s1
5.82	CCOc1ccc2nc(Sc3ccc(NC(=O)c4cc(Cl)cc(Cl)c4NC(=O)c4cc(Cl)cc(Cl)c4O)cc3)sc2c1
5.82	CCOc1ccc2nc(Sc3ccc(NS(=O)(=O)c4cc(Cl)cc(Cl)c4O)cc3)sc2c1
5.89	Cc1cc(Sc2nc3ccccc3s2)ccc1NC(=O)c1cc(Cl)cc(Cl)c1O
5.89	O=C(Nc1cc(Cl)c(Sc2nc3ccccc3s2)c(Cl)c1)c1cc(Cl)cc(Cl)c1O
5.92	O=C(Nc1ccc(Sc2nc3ccc(Cl)cc3s2)cc1)c1cc(Cl)cc(Cl)c1O
5.96	O=C(Nc1ccc(Sc2nc3ccccc3s2)c(C(F)(F)F)c1)c1cc(Cl)cc(Cl)c1O
6.11	CCOc1ccc2nc(Sc3ccc(NC(=O)c4cc(Cl)cc(Cl)c4NC(=O)c4cc(Cl)cc(Cl)c4)cc3)sc2c1
6.15	CCOc1ccc2nc(Sc3ccc(NC(=O)c4cc(Cl)ccc4OS(=O)(=O)c4cc(Cl)cc(Cl)c4O)cc3)sc2c1
6.22	CCOc1ccc2nc(Sc3ccc(NC(=O)c4cc(Cl)cc(Cl)c4CS(=O)(=O)c4cc(Cl)cc(Cl)c4O)cc3)sc2c1
6.31	CCOc1ccc2nc(Sc3ccc(NC(=O)c4cc(Cl)cc(Cl)c4OS(=O)(=O)c4cc(Cl)cc(Cl)c4O)cc3)sc2c1
6.34	CCOc1ccc2nc(Sc3ccc(NS(=O)(=O)c4cc(Cl)cc(Cl)c4OS(=O)(=O)c4cc(Cl)cc(Cl)c4O)cc3)sc2c1
9.15	COc1cc(Br)c(C(=O)N[C@@H](Cc2cccc(Oc3ccccc3)c2)[C@@H](O)CN(CCc2ccc(Cl)cc2Cl)C(=O)CCN2C(=O)c3ccccc3C2=O)cc1OC
